The text below walks through data of patent US20120040974A1, “MIF MODULATORS” (YALE UNIVERSITY, priority 2008, published 2012).

Molecules are shown by their SMILES. Where two headings read alike, the source gives them in different places.

Test [1] has as its target T1, MIF-CD74 binding (biotinylated recombinant human MIF / immobilized CD74 ectodomain) (Homo sapiens, UniProt P14174).
T1 sequence (P14174 2-115 limits assumed): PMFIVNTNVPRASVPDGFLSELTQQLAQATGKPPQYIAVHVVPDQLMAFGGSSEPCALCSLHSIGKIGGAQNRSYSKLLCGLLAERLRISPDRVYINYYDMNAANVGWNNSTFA
As to the kind of experiment: MIF-CD74 binding (capture) assay. As to conditions: for Capture % Max. Inhib.: Table 3, benzothiazolones, capture assay; for IC50: Table 1, benzooxazolones B, inhibition of MIF-CD74 binding.
Experimental: This allows measurement of the inhibition or enhancement of the binding of MIF to its receptor induced by an addend.
Incubate at 4° C. overnight. Wash the plate 4 times with 250 μl/well TTBS and add 100 μl/well of superblock (Pierce, Ill.). Incubate at 4° C. overnight. Remove the superblock and add mixture of compound and biotin-labeled recombinant human MIF incubated at 4° C. overnight. (Each compound was pre-incubated at various concentrations with 2 ng/μl 0.2 μM biotin-MIF for 2 hours at room temperature in the dark). After washing the plate 4 times with 250 μl/well TTBS, 60 μl/well of Strepavidin-AP (R&D Systems) was added and incubated for 1 hr at room temperature in the dark. Wells were then washed as before and 60 μl/well of PNPP (Sigma) was added, allowing the color to develop in the dark at room temperature and then read at OD405 nm.

For test [2], the target named is T2, Human MIF tautomerase activity (HPP) (Homo sapiens, UniProt P14174).
T2 construct: made in house
T2 sequence (P14174 2-115 limits assumed): T1 sequence (P14174 2-115 limits assumed)
As to the kind of experiment: HPP tautomerase assay. The format is biochemical. As to conditions: for Emax: read-out: HPP Max. Inhib.
Experimental: The HPP assay used was adapted to the microtiter plate format. […] Dilutions of the enzyme were prepared in 50 mM sodium phosphate buffer, 1 mM EDTA, pH 6.5. HPP was obtained from Aldrich. A stock solution of 60 mM HPP in ethanol is prepared and kept for maximally 4 hours on ice. The working solution (600 μM) of the substrate was prepared by diluting an aliquot of the stock solution with 50 mM sodium phosphate buffer, 1 mM EDTA, pH 6.5. […] Inhibitor and enzyme solutions were pipetted manually using an Eppendorf 12-channel pipette. Addition of substrate to start the reaction was performed with an Igel 96 pipetting station (OpalJena, Jena, Germany), which allows simultaneous addition of fluid to all 96 wells of the plates. Optical density (OD) was determined using a SPECTRAmax 250 reader (Molecular Devices). The reader was operated with the SoftmaxPro 2.6.1 software. Assay: Three wells of the microtiter plates were filled with buffer only, to allow for blanking. […] The last step was performed using the 96-channel pipetting device. The plate was then immediately (i.e. within a few seconds) transferred manually to the SPECTRAmax 250 reader and the optical density was determined (310 nm). From the data obtained, IC50 values were calculated using Excel® and XLfit® software.

Another test relates to ovarian cancer cell line. Description: Growth inhibition of an ovarian cancer cell line. The format is cell-based. An excerpt:
KSP inhibitor ARRY-520 is used as a substitute for Paclitaxel in Type I ovarian cancer cells. J Transl Med. 7:63.

The test system of test [3] is MIF-dependent ERK1/2 phosphorylation. As to the kind of experiment: MIF-dependent signal transduction in cells (ERK1/2 phosphorylation). The note with it: compared to isoxazoline-1. The class given is cell-based. How it is done: Two additional assays were performed on compounds according to the present invention. In the first, MIF-dependent signal transduction in cells as evidenced by a reduction in ERK1/2 phosphorylation and its inhibitory action is compared to the known small molecule MIF antagonist, isoxazoline-1 following the assay reported in Leng L., Metz C, Fang Y, Xu J, Donnelly S, Baugh J, Delonery T, Chen Y, Mitchell R A, and Bucala R. 2003. MIF Signal Transduction Initiated by Binding to CD74. J Exp Med 197, 1467-1476.

[4] abbreviates: Table 1, MIF tautomerase activity, HPP substrate.

Regarding `COc1ccccc1-n1sc2ccc(Cl)cc2c1=O` [Compound 31], the “Capture % Max. Inhib.” value in test [1] was determined as 7%.
As a reminder, the IC50 is the concentration that gives 50% inhibition. Consider `COc1cccc(Cn2c(=O)oc3ccc(CO)cc32)c1` [Compound 4, 5-hydroxymethyl-3-(3-methoxy-benzyl)-3H-benzooxazol-2-one], for which the IC50 in test [1] stood at 500 µM.
With `Cc1ccc2oc(=O)n(Cc3ccccc3)c2c1` [Compound 1], the midpoint of inhibition in test [2] (setting [4]), the IC50, lay at 0.5 µM.
With `COc1ccccc1Cn1c(=O)oc2ccc(F)cc21` [Compound 10], in test [2] (Table 1, maximal inhibition of HPP tautomerase activity), the Emax was 17%.
On to `O=c1c2ccc(F)cc2sn1-c1cccc(CO)c1` [Compound 29], for which the “Capture % Max. Inhib.” value in test [1] came to 8%. In addition, inhibition in test [2] (Table 3, benzothiazolones) was half-maximal at 4.8 µM (IC50).
With `N#Cc1nc2ccccc2n1Cc1ccccc1` [Compound 18, 1-Benzyl-1H-benzoimidazole-2-carbonitrile], the Emax in test [2] (Table 2, other series) is 36%.
Take `Cc1ccc2oc(=O)n(Cc3cccc(O)c3)c2c1` [Compound 098]: the “inhibition of growth of an ovarian cancer cell line, in words” value with ovarian cancer cell line is reported as “significant inhibitory action”. Also, the “inhibition of MIF-dependent signal transduction (reduction in ERK1/2 phosphorylation), in words” value in test [3] is “significant inhibitory action”.
With `O=c1c2cc(F)ccc2sn1-c1cccc(O)c1` [Compound 32], the “Capture % Max. Inhib.” value in test [1] was determined as 13%.
With `COC(=O)CC1CC(c2ccc(O)cc2)=NO1` (centres unmarked) [ISO-1, reference compound], the “activity in the capture assay (MIF-CD74 binding), in words” value (“activity in the capture assay” for short) in test [1] is “inactive”. For the same compound, in test [2], the “activity in the HPP tautomerase assay, in words” value was “inactive”.
Turning to `O=c1c2cc(C(F)(F)F)ccc2sn1-c1ccc(Cl)cc1` [Compound 35], in test [1], the “Capture % Max. Inhib.” value amounted to 12%. The compound also gave an IC50 in test [2] (Table 3, benzothiazolones) of 8.5 µM.
In the case of `Ic1cc(-c2ccccc2)ncn1` [Compound 4-IPP, 4-iodo-6-phenylpyrimidine, reference compound], in test [1], the “activity in the capture assay” value was “inactive” and the IC50 is greater than 10000 µM.
On to `O=c1c2cc([N+](=O)[O-])ccc2sn1-c1ccc(Cl)cc1` [Compound 34], for which, in test [1], the “Capture % Max. Inhib.” value was determined as 11%.
Turning to `O=c1oc2ccc(F)cc2n1Cc1ccccc1` [Compound 8], the IC50 in test [2] (setting [4]) is 1 µM.
As for `O=c1c2cc(F)ccc2sn1-c1ccc(Cl)cc1` [Compound 30], in test [1], the “Capture % Max. Inhib.” value amounted to 7%. The IC50 in test [2] (Table 3, benzothiazolones) is 2.8 µM.
As to `O=c1c2ccc(F)cc2sn1-c1ccc(Cl)cc1` [Compound 25], the “activity in the capture assay” value in test [1] was “agonist behavior”.
With `O=C(c1cc2ccccc2o1)c1cc2ccccc2o1` [Compound 20, bisbenzofuran-2-yl methanone], half-maximal inhibition in test [2] (Table 2, other series) (IC50) was put at 510 µM.
As to `COc1cccc(Cn2c(=O)oc3ccc(C)cc32)c1` [Compound 5], the IC50 in test [1] was 300 µM.
Turning to `O=c1oc2cc(O)ccc2n1Cc1ccccc1` [Compound 14], in test [1], the 50% inhibitory concentration (IC50) is greater than 1000 µM.
Consider `COc1cccc(Cn2c(=O)oc3ccc(OC)cc32)c1` [Compound 3, 5-methoxy-3-(3-methoxy-benzyl)-3H-benzooxazol-2-one], for which the IC50 in test [1] came out at 200 µM.
In the case of `c1ccc(Cn2c(-c3cscn3)nc3ccccc32)cc1` [Compound 17, 4-(1-benzyl-1H-benzo[d]imidazol-2-yl)thiazole], the Emax in test [2] (Table 2, other series) worked out at 40%.
For the compound `O=c1c2ccc(Br)cc2sn1-c1ccc(Cl)cc1` [Compound 36], in test [1], the “Capture % Max. Inhib.” value worked out at 10%.
With `N#Cc1ccc2c(=O)n(-c3ccc(Cl)cc3)sc2c1` [Compound 37], in test [1], the “Capture % Max. Inhib.” value amounted to 16%.
On the same count and under the same terms, to `CC(=O)OCc1cccc(-n2sc3cc(F)ccc3c2=O)c1` [Compound 33] belongs 12%.
